Results from the supplement of paper PMC8617591.

Assays:
[1] = tested on: Mycobacterium tuberculosis Erdman (autoluminescent); test: FIC50 (Loewe) at 50% inhibition (log2); higher = more antagonistic
Method: (§1)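 DiaMOND equipotent two-drug combination dose responses against autoluminescent M. tuberculosis Erdman in 8 in vitro models. Read-out is OD600, or luminescence for the intracellular and dormancy models, normalised to untreated wells. Hill-fit Einf, AUC25 and GRinf are potency metrics; FIC50 and FIC90 are Loewe-additivity fractional inhibitory concentrations, given as log2 (negative = synergy). Replicates are averaged.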

[2] = tested on: Mycobacterium tuberculosis Erdman (autoluminescent); test: AUC25, normalised area under dose response up to IC25 (fraction (0-1)); higher = more potent at low dose
Method: as §1

[3] = tested on: Mycobacterium tuberculosis Erdman (autoluminescent); test: FIC90 (Loewe) at 90% inhibition (log2); higher = more antagonistic
Method: as §1

[4] = tested on: Mycobacterium tuberculosis Erdman (autoluminescent); test: Einf, fitted maximum growth inhibition of combination (fraction); higher = stronger maximal inhibition
Method: as §1

[5] = tested on: Mycobacterium tuberculosis Erdman (autoluminescent); test: GRinf, maximum normalised growth rate inhibition (unitless (-1 to 1)); higher = less effect (negative = killing)
Method: as §1

CC(=O)NC[C@H]1CN(c2ccc(N3CCOCC3)c(F)c2)C(=O)O1 [linezolid] + NC(=O)c1cnccn1 [pyrazinamide]
Details | AUC25, [2] | Einf, [4] | FIC50, [1] | FIC90, [3] | GRinf, [5]
in vitro model: acidic pH 5.7, time point: constant (~7 days, model-specific) | 0.0815 | 0.856 | 0.463 | – | -0.176
in vitro model: acidic pH 5.7, time point: terminal (~4-5 doublings, model-specific) | 0.0982 | 0.985 | 0.393 | -1.67 | -0.358
in vitro model: intracellular J774, time point: constant = terminal | – | 0.948 | – | 0.0529 | -0.235

Details | AUC25, [2] | Einf, [4] | FIC50, [1] | FIC90, [3] | GRinf, [5]
in vitro model: butyrate, time point: constant (~7 days, model-specific) | 0.119 | 0.897 | -0.211 | 1.73 | 0.0498
in vitro model: butyrate, time point: terminal (~4-5 doublings, model-specific) | 0.0989 | 0.95 | -0.152 | 0.565 | 0.0146
in vitro model: cholesterol 0.05 mM, time point: constant (~7 days, model-specific) | 0.142 | 0.724 | – | – | -0.126
in vitro model: cholesterol 0.05 mM, time point: terminal (~4-5 doublings, model-specific) | 0.141 | 0.95 | 0.09 | – | -0.256
in vitro model: cholesterol-high 0.2 mM, time point: constant (~7 days, model-specific) | 0.114 | 0.957 | 0.0387 | – | -0.407
in vitro model: cholesterol-high 0.2 mM, time point: terminal (~4-5 doublings, model-specific) | 0.115 | 0.999 | 0.0483 | 0.383 | -0.83
in vitro model: dormancy (butyrate + nitrate, low O2), time point: constant (~7 days, model-specific) | 0.0601 | 0.878 | 0.507 | 0.733 | 0.236
in vitro model: dormancy (butyrate + nitrate, low O2), time point: terminal (~4-5 doublings, model-specific) | 0.0422 | 0.823 | 0.0853 | 1.09 | 0.182
in vitro model: standard 7H9 glycerol, time point: constant = terminal | 0.0807 | 0.939 | 0.336 | – | -0.0617
in vitro model: valerate, time point: constant (~7 days, model-specific) | 0.0877 | 0.798 | -0.432 | – | 0.131
in vitro model: valerate, time point: terminal (~4-5 doublings, model-specific) | 0.0556 | 0.892 | -0.271 | 1.25 | 0.137

CC(=O)NC[C@H]1CN(c2ccc(N3CCOCC3)c(F)c2)C(=O)O1 [linezolid] + O=[N+]([O-])c1cn2c(n1)OC[C@@H](OCc1ccc(OC(F)(F)F)cc1)C2 [pretomanid]
Details | AUC25, [2] | Einf, [4] | FIC50, [1] | FIC90, [3] | GRinf, [5]
in vitro model: acidic pH 5.7, time point: constant (~7 days, model-specific) | 0.116 | 0.89 | 0.583 | – | -0.559
in vitro model: acidic pH 5.7, time point: terminal (~4-5 doublings, model-specific) | 0.0893 | 0.984 | 0.324 | 0.246 | -0.355
in vitro model: intracellular J774, time point: constant = terminal | – | 0.993 | – | 1.06 | -0.54

Details | AUC25, [2] | Einf, [4] | FIC50, [1] | FIC90, [3] | GRinf, [5]
in vitro model: butyrate, time point: constant (~7 days, model-specific) | 0.0973 | 0.907 | 0.595 | 1.47 | 0.0334
in vitro model: butyrate, time point: terminal (~4-5 doublings, model-specific) | 0.0643 | 0.947 | 0.4 | 0.493 | 0.0161
in vitro model: cholesterol 0.05 mM, time point: constant (~7 days, model-specific) | 0.13 | 0.708 | -0.367 | – | -0.103
in vitro model: cholesterol 0.05 mM, time point: terminal (~4-5 doublings, model-specific) | 0.142 | 0.942 | -0.293 | 0.00527 | -0.182
in vitro model: cholesterol-high 0.2 mM, time point: constant (~7 days, model-specific) | 0.0977 | 0.869 | -0.451 | -0.477 | -0.114
in vitro model: cholesterol-high 0.2 mM, time point: terminal (~4-5 doublings, model-specific) | 0.111 | 0.992 | -0.228 | 0.311 | -0.548
in vitro model: dormancy (butyrate + nitrate, low O2), time point: constant (~7 days, model-specific) | 0.0359 | 0.925 | 0.74 | 0.509 | 0.0858
in vitro model: dormancy (butyrate + nitrate, low O2), time point: terminal (~4-5 doublings, model-specific) | 0.0385 | 0.991 | 0.255 | 0.232 | -0.248
in vitro model: standard 7H9 glycerol, time point: constant = terminal | 0.0819 | 0.971 | 0.34 | 0.309 | -0.171
in vitro model: valerate, time point: constant (~7 days, model-specific) | 0.102 | 0.802 | 1.02 | – | 0.0728
in vitro model: valerate, time point: terminal (~4-5 doublings, model-specific) | 0.123 | 0.951 | -0.689 | 0.943 | 0.0215

COc1c(N2C[C@@H]3CCCN[C@@H]3C2)c(F)cc2c(=O)c(C(=O)O)cn(C3CC3)c12 [moxifloxacin] + CO[C@H]1/C=C/O[C@@]2(C)Oc3c(C)c(O)c4c(O)c(c(/C=N/N5CCN(C6CCCC6)CC5)c(O)c4c3C2=O)NC(=O)/C(C)=C\C=C\[C@H](C)[C@H](O)[C@@H](C)[C@@H](O)[C@@H](C)[C@H](OC(C)=O)[C@@H]1C [rifapentine]
Details | AUC25, [2] | Einf, [4] | FIC50, [1] | FIC90, [3] | GRinf, [5]
in vitro model: acidic pH 5.7, time point: constant (~7 days, model-specific) | 0.0469 | 0.776 | 0.389 | – | 0.0776
in vitro model: acidic pH 5.7, time point: terminal (~4-5 doublings, model-specific) | 0.0544 | 0.962 | 0.463 | 0.271 | -0.0233
in vitro model: intracellular J774, time point: constant = terminal | – | 0.973 | – | 0.684 | -0.226

Details | AUC25, [2] | Einf, [4] | FIC50, [1] | FIC90, [3] | GRinf, [5]
in vitro model: butyrate, time point: constant (~7 days, model-specific) | 0.0933 | 0.893 | 0.555 | 0.73 | 0.0724
in vitro model: butyrate, time point: terminal (~4-5 doublings, model-specific) | 0.0734 | 0.956 | 0.515 | 0.586 | 0.0272
in vitro model: cholesterol 0.05 mM, time point: constant (~7 days, model-specific) | 0.131 | 0.594 | 0.777 | – | -0.074
in vitro model: cholesterol 0.05 mM, time point: terminal (~4-5 doublings, model-specific) | 0.0876 | 0.887 | 0.482 | 1.32 | -0.0906
in vitro model: cholesterol-high 0.2 mM, time point: constant (~7 days, model-specific) | 0.082 | 0.903 | 0.798 | -0.159 | -0.242
in vitro model: cholesterol-high 0.2 mM, time point: terminal (~4-5 doublings, model-specific) | 0.0641 | 0.996 | 0.807 | 0.727 | -0.866
in vitro model: dormancy (butyrate + nitrate, low O2), time point: constant (~7 days, model-specific) | 0.0771 | 0.915 | 0.269 | 0.0994 | 0.17
in vitro model: dormancy (butyrate + nitrate, low O2), time point: terminal (~4-5 doublings, model-specific) | 0.0532 | 0.985 | 0.72 | 0.719 | -0.231
in vitro model: standard 7H9 glycerol, time point: constant = terminal | 0.0584 | 0.893 | 0.509 | 0.225 | 0.0707
in vitro model: valerate, time point: constant (~7 days, model-specific) | 0.0746 | 0.844 | 0.4 | – | 0.0459
in vitro model: valerate, time point: terminal (~4-5 doublings, model-specific) | 0.0547 | 0.933 | 0.541 | 1.69 | 0.0582
